One assay deals with T1, ALK (Homo sapiens, UniProt Q9UM73).
T1 construct: host or cells: baculovirus expression system
The experiment in a line: ALK Kinase Assay (ELISA/TRF, PLC-γ substrate). The format is biochemical. The conditions noted are these: read-out: ALK Potency. Put shortly:
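PLC-γ substrate coated at 10 μg/mL in TBS; reaction started with 30 ng/ml ALK, run 15 min at 37° C. Phosphoproduct detected by TRF with Eu-N1-labeled PT66 anti-phosphotyrosine antibody. IC50 from sigmoidal variable-slope fit of percent inhibition versus log concentration.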

For another assay, the target named is T2, JAK2 (Homo sapiens, UniProt O60674).
T2 construct: host or cells: baculovirus expression system
Description: Recombinant Human JAK2 Kinase Assay (TRF). The conditions noted are these: read-out: JAK2 Potency. The format is biochemical. Put shortly: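 Kinase activity of baculovirus-expressed JAK2 is followed on a surface-immobilised biotinylated peptide, with the reaction run for 20 min at room temperature in buffer containing 0.2 μM ATP and manganese. Phosphorylation is read with Eu-N1 PY100 antibody.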

The mark [1] stands for this setting: ALK kinase inhibition, 1 μM ATP.
[2] abbreviates: JAK2 kinase inhibition, 0.2 μM ATP.

Structures are written as SMILES. Where two headings read alike, the source gives them in different places.

T2 sequence (O60674 whole entry): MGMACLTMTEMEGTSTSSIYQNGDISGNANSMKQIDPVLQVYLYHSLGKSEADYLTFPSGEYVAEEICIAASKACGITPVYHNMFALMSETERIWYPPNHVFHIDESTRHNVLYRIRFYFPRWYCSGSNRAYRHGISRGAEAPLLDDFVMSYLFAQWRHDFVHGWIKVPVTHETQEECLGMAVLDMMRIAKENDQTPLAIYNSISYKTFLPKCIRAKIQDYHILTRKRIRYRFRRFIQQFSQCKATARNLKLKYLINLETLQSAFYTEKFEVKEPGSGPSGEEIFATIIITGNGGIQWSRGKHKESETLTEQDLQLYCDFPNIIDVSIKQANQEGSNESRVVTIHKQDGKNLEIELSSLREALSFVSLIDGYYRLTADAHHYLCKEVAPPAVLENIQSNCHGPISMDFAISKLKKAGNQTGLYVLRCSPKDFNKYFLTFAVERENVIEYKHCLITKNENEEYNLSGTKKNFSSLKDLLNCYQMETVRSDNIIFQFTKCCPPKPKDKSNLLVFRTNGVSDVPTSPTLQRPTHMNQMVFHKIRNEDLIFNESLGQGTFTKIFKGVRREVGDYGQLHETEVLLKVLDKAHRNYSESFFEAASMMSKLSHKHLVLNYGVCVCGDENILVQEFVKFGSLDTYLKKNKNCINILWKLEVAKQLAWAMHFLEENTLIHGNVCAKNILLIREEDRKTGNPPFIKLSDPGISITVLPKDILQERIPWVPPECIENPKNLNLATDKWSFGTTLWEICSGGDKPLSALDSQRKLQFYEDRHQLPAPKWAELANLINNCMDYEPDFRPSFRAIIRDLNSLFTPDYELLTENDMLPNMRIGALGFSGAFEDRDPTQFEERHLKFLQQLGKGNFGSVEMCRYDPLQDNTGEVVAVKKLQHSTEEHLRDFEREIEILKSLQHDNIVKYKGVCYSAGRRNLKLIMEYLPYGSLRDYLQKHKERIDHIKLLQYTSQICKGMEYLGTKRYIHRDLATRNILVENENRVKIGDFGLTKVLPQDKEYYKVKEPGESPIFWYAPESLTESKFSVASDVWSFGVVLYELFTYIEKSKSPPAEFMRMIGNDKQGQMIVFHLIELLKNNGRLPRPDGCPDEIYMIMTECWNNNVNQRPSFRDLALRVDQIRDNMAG
T1 sequence (Q9UM73 19-1620): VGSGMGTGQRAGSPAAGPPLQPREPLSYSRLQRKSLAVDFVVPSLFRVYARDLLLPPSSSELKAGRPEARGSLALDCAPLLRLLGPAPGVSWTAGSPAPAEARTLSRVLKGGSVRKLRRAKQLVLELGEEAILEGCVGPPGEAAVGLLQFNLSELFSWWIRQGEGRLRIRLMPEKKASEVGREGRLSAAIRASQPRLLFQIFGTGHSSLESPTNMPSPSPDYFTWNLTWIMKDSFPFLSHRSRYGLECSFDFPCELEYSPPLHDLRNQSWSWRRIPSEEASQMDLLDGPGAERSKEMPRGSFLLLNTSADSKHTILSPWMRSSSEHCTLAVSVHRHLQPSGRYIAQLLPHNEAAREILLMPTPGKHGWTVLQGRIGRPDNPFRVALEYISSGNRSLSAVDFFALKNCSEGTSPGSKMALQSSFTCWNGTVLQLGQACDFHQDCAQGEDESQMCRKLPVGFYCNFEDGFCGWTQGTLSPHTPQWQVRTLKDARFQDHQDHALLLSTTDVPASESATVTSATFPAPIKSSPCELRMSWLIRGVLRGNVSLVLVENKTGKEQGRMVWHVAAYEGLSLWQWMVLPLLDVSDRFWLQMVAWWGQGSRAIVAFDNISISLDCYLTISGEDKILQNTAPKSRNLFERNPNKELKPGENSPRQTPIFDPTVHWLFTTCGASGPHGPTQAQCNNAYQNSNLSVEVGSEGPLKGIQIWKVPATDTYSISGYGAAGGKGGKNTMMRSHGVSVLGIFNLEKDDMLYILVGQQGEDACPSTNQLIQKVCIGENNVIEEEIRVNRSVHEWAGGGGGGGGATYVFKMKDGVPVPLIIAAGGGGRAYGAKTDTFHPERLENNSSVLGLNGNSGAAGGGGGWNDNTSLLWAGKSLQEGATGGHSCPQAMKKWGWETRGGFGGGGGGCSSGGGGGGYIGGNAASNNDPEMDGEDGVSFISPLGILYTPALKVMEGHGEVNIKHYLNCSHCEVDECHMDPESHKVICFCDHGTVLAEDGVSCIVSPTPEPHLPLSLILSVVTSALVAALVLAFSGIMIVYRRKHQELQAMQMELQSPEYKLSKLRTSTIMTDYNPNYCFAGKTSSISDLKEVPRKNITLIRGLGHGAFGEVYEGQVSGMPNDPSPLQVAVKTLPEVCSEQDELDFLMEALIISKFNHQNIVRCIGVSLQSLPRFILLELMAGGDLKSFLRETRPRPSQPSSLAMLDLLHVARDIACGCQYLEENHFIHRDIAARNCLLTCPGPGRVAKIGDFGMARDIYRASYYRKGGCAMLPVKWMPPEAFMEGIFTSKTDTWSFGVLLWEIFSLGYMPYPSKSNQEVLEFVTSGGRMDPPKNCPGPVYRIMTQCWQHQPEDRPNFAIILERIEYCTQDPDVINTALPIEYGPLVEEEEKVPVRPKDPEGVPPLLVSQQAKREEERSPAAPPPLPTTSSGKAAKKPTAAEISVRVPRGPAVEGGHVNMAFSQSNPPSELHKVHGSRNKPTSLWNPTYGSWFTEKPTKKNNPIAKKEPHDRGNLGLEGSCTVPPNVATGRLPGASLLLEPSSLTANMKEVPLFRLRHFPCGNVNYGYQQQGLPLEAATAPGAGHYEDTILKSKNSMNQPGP

As to `COc1cc(N2CCCN(C[C@@H](C)O)CC2)ccc1Nc1ncc2ccc(-c3ccccc3N(C)S(C)(=O)=O)n2n1` [Example 772, N-[2-(2-{4-[4-((R)-2-Hydroxy-propyl)-[1,4]diazepan-1-yl]-2-methoxy-phenylamino}-pyrrolo[2,1-f][1,2,4]triazin-7-yl)-phenyl]-N-methyl-methanesulfonamide], the figures for the IC50 at ALK (setting [1]) and on JAK2 (setting [2]) were less than 100 nM and 100 to 1000 nM, respectively.

With `Fc1ncccc1-c1ccc2cnc(Nc3ccc(N4CCOCC4)cc3)nn12` [Example 1040, [7-(2-Fluoro-pyridin-3-yl)-pyrrolo[2,1-f][1,2,4]triazin-2-yl]-(4-morpholin-4-yl-phenyl)-amine], the IC50 on ALK (setting [1]) was 100 to 1000 nM; on JAK2 (setting [2]), less than 100 nM.

For `CN1CCN(c2ccc(Nc3ncc4ccc(-c5ccccc5C(N)=O)n4n3)cc2)CC1` [Example 409, 2-{2-[4-(4-Methyl-piperazin-1-yl)-phenylamino]-pyrrolo[2,1-f][1,2,4]triazin-7-yl}-benzamide], the IC50 on ALK (ALK Kinase Inhibition) is 100 to 1000 nM; at JAK2 (JAK2 Kinase Inhibition), less than 100 nM.

With `Cc1nc2ccc(Nc3ncc4ccc(-c5cccc(S(=O)(=O)NC(C)(C)C)c5)n4n3)cc2n1C` [Example 1331, N-tert-Butyl-3-[2-(2,3-dimethyl-3H-benzimidazol-5-ylamino)-pyrrolo[2,1-f][1,2,4]triazin-7-yl]-benzenesulfonamide], the IC50 on ALK (setting [1]) was 100 to 1000 nM; at JAK2 (setting [2]) it was less than 100 nM.

For the compound `CN1C(=O)COc2cc(Nc3ncc4ccc(-c5ccccc5N(C)S(C)(=O)=O)n4n3)ccc21` [Example 640, N-Methyl-N-{2-[2-(4-methyl-3-oxo-3,4-dihydro-2H-benzo[1,4]oxazin-7-ylamino)-pyrrolo[2,1-f][1,2,4]triazin-7-yl]-phenyl}-methanesulfonamide], the IC50 on ALK (setting [1]) was 100 to 1000 nM; at JAK2 (setting [2]), less than 100 nM.

As to `CN1CCN(c2ccc(Nc3ncc4ccc(NCc5cccnc5)n4n3)cc2)CC1` [Example 1164, N(2)-[4-(4-Methyl-piperazin-1-yl)-phenyl]-N(7)-pyridin-3-ylmethyl-pyrrolo[2,1-f][1,2,4]triazine-2,7-diamine], the IC50 is 100 to 1000 nM at ALK (setting [1]) and less than 100 nM on JAK2 (setting [2]).

As for `CN1CCN(CC2CCN(c3ccc(Nc4ncc5ccc(-c6ccc(S(C)(=O)=O)cc6)n5n4)cc3)CC2)CC1` [Example 452, [7-(4-Methanesulfonyl-phenyl)-pyrrolo[2,1-f][1,2,4]triazin-2-yl]-{4-[4-(4-methyl-piperazin-1-ylmethyl)-piperidin-1-yl]-phenyl}-amine], the IC50 at ALK (ALK Kinase Inhibition) is 100 to 1000 nM; at JAK2 (JAK2 Kinase Inhibition), less than 100 nM.

Turning to `COCC(C)Oc1ncc2ccc(-c3ccc(S(C)(=O)=O)cc3)n2n1` (stereo not shown) [Example 113, 7-(4-Methanesulfonyl-phenyl)-2-(2-methoxy-1-methyl-ethoxy)-pyrrolo[2,1-f][1,2,4]triazine], the IC50 is greater than 10000 nM at ALK (ALK Kinase Inhibition) and 1000 to 10000 nM at JAK2 (JAK2 Kinase Inhibition).

`O=S(=O)(c1cccc(-c2ccc3cnc(Nc4ccc(C5CCN(CCO)CC5)cc4)nn23)c1)N1CCCC1` [Example 678, 2-[4-(4-{7-[3-(Pyrrolidine-1-sulfonyl)-phenyl]-pyrrolo[2,1-f][1,2,4]triazin-2-ylamino}-phenyl)-piperidin-1-yl]ethanol]: the IC50 at ALK (setting [1]) was 100 to 1000 nM; on JAK2 (setting [2]), less than 100 nM.

In the case of `CS(=O)(=O)c1cccc(-c2ccc3cnc(Nc4ccc(Cl)c(OC[C@H]5CCCN5)c4)nn23)c1` [Example 1021, [4-Chloro-3-((R)-1-pyrrolidin-2-ylmethoxy)-phenyl]-[7-(3-methanesulfonyl-phenyl)-pyrrolo[2,1-f][1,2,4]triazin-2-yl]-amine], the results for the IC50 at ALK (setting [1]) and on JAK2 (setting [2]) were 1000 to 10000 nM and less than 100 nM, respectively.

In the case of `CC(=O)N1CC(C)(C)c2ccc(Nc3ncc4ccc(-c5cnn(C)c5)n4n3)cc21` [Example 968, 1-{3,3-Dimethyl-6-[7-(1-methyl-1H-pyrazol-4-yl)-pyrrolo[2,1-f][1,2,4]triazin-2-ylamino]-2,3-dihydro-indol-1-yl}-ethanone], the figures for the IC50 at ALK (setting [1]) and at JAK2 (setting [2]) were 100 to 1000 nM and less than 100 nM, respectively.

Take `Fc1cc(N2CCOCC2)ccc1Nc1ncc2ccc(-c3cccnc3)n2n1` [Example 372, (2-Fluoro-4-morpholin-4-yl-phenyl)-(7-pyridin-3-yl-pyrrolo[2,1-f][1,2,4]triazin-2-yl)-amine]: the IC50 was 100 to 1000 nM at ALK (ALK Kinase Inhibition) and less than 100 nM at JAK2 (JAK2 Kinase Inhibition).

With `CN1CCN(c2ccc(Nc3ncc4ccc(-c5cccc(NS(=O)(=O)C6CC6)c5)n4n3)cc2)CC1` [Example 413, Cyclopropanesulfonic acid (3-{2-[4-(4-methyl-piperazin-1-yl)-phenylamino]-pyrrolo[2,1-f][1,2,4]triazin-7-yl}-phenyl)-amide], the values for the IC50 on ALK (ALK Kinase Inhibition) and at JAK2 (JAK2 Kinase Inhibition) were 100 to 1000 nM and less than 100 nM, respectively.

Consider `COc1cc(Nc2ncc3ccc(-c4cc(Cl)ccc4OC)n3n2)cc(OC)c1` [Example 157, [7-(5-Chloro-2-methoxy-phenyl)-pyrrolo[2,1-f][1,2,4]triazin-2-yl]-(3,5-dimethoxy-phenyl)-amine], for which the values for the IC50 at ALK (ALK Kinase Inhibition) and at JAK2 (JAK2 Kinase Inhibition) were 100 to 1000 nM and less than 100 nM, respectively.

As to `COc1ccccc1-c1ccc2cnc(Nc3ccn(CC(=O)N4CCN(C)CC4)n3)nn12` [Example 1114, 2-{3-[7-(2-Methoxy-phenyl)-pyrrolo[2,1-f][1,2,4]triazin-2-ylamino]-pyrazol-1-yl}-1-(4-methyl-piperazin-1-yl)-ethanone], the values for the IC50 at ALK (setting [1]) and at JAK2 (setting [2]) were 100 to 1000 nM and less than 100 nM, respectively.

Turning to `CN1CCN(C)C(c2ccc(Nc3ncc4ccc(-c5ccccc5N(C)S(C)(=O)=O)n4n3)cc2)C1=O` (stereo not shown) [Example 1073, N-(2-{2-[4-(1,4-Dimethyl-3-oxo-piperazin-2-yl)-phenylamino]-pyrrolo[2,1-f][1,2,4]triazin-7-yl}-phenyl)-N-methyl-methanesulfonamide], the IC50 is 100 to 1000 nM on ALK (setting [1]) and less than 100 nM on JAK2 (setting [2]).

Regarding `CC(C)(C)NS(=O)(=O)c1cccc(-c2ccc3cnc(Nc4cccc(NS(C)(=O)=O)c4)nn23)c1` [Example 889, N-tert-Butyl-3-[2-(3-methanesulfonylamino-phenylamino)-pyrrolo[2,1-f][1,2,4]triazin-7-yl]-benzenesulfonamide], the IC50 on ALK (setting [1]) was 100 to 1000 nM; at JAK2 (setting [2]), less than 100 nM.

For `CN1CCN(c2ccc(Nc3ncc4ccc(-c5cccnc5Cl)n4n3)cc2)CC1` [Example 1036, [7-(2-Chloro-pyridin-3-yl)-pyrrolo[2,1-f][1,2,4]triazin-2-yl]-[4-(4-methyl-piperazin-1-yl)-phenyl]-amine], the IC50 at ALK (setting [1]) is 100 to 1000 nM; at JAK2 (setting [2]) it was less than 100 nM.

Regarding `C[C@H](O)CN1CCN(c2cc([S@@+](C)[O-])c(Nc3ncc4ccc(-c5ccccc5N(C)S(C)(=O)=O)n4n3)cc2F)CC1` [Example 1485, (R,S)—N-[2-(2-{5-Fluoro-4-[4-((S)-2-hydroxy-propyl)-piperazin-1-yl]-2-methanesulfinyl-phenylamino}-pyrrolo[2,1-f][1,2,4]triazin-7-yl)-phenyl]-N-methyl-methanesulfonamide], the IC50 at ALK (ALK Kinase Inhibition) was 100 to 1000 nM; on JAK2 (JAK2 Kinase Inhibition), less than 100 nM.

With `c1ccc(-c2ccc3cnc(Nc4ccc(N5CCOCC5)cc4)nn23)cc1` [Example 2, (4-Morpholin-4-yl-phenyl)-(7-phenyl-pyrrolo[2,1-f][1,2,4]triazin-2-yl)amine], the IC50 on ALK (ALK Kinase Inhibition) was 100 to 1000 nM; on JAK2 (JAK2 Kinase Inhibition), less than 100 nM.

(Values after patent US8471005B2 (Cephalon, Inc., priority 2008, dated 2013).)
